The subject of one data set is Phospho-MAPKAPK2. In words: Anisomycin-stimulated mice ex-vivo phospho-MAPKAPK2 inhibition assay by flow cytometry. To be noted: female Balb/c mice, po, blood after 2 hours, ex vivo 10 μg/ml anisomycin, CD11b+Ly6G- cells. In kind it is in vivo. The procedure:
Female Balb/c mice with 8-10 week-old age are purchased from Taconic Inc. and dosed po with 0.2 mL volume of compounds at the concentrations of 30, 10, 3, 1 mg/kg. Blood is obtained from cardiac puncture after 2 hours or other indicated time periods and collected in EDTA-containing tubes. 100 μL of blood is incubated at 37° C. for 10 minutes. Whole blood is then mixed with FITC-conjugated rat anti-mouse Ly-6G mAb (1:250) and APC-conjugated rat anti-mouse CD11b mAb (1:100) and stimulated with 10 μg/ml anisomycin. Both cell surface antigen staining and anisomycin stimulation is conducted at 37° C. for 15 min and followed up with Lyse/Fix buffer (BD Biosciences, Cat#558049) for 10 min at room temperature. Lysed blood samples are spun down at 600×g for 8 minutes at room temperature with additional wash once by 4 mL PBS. 200 μL of diluted anti-Phospho-MAPKAPK-2 (Thr334) antibody (1:100 dilution) (Cell Signaling, Cat#3041) and mouse BD Fc Block (1:100 dilution) (BD Biosciences, 553141) in permeabilization Medium B (Caltag, Catg GAS002S-5) are added into blood cells and incubate at room temperature for 30 minutes. After the incubation, 3 mL of stain/wash buffer is added and cells are spanned down as described above with additional wash with 3 ml stain/wash buffer. […] Mean fluorescence of phosphono-MapKap-K2 staining is measured on gated CD11b+Ly6G-cells. […]
A general note: Flow cytometry measures light scatter and fluorescence of single cells or particles in a stream.

Another data set has as its system TNFα. In words: Inhibition of TNFα in vitro, LPS/interferon-γ treated mouse peritoneal macrophages, Luminex. It is filed as cell-based. To be noted: Peritoneal macrophage, 50 ng/mL LPS and 10 U/mL interferon-γ, 18 hours, read-out: IC50, suppression of TNFα in vitro. The procedure: 1 mL thioglycolate broth (5.0 g yeast extract, 15.0 g casitone or trypticase, 5.0 g dextrose, 2.5 g sodium chloride, 0.75 g L-cystine, 0.5 g sodium thioglycolate, 1.0 mg resazurin, and 0.75 g agar in 1.0 L distilled water) are injected into the peritoneal cavity of Balb/C female mice. At day 4 or 5 post-injection the mice are sacrificed and then injected i.p. with 4 mL RPMI-1640 medium (BioWhittaker) and the peritoneal macrophages are withdrawn by syringe.
Mouse peritoneal macrophages are counted with a hemocytometer and adjusted to 5×10^5 cells/well in 96-well plates in RPMI-1640 medium with 10% fetal bovine serum. 200 μL/well is plated in 96-well plates and the cells allowed to settle and adhere to the bottom of the well for at least 3 hours. The test compound or standard p38 kinase inhibitor is pre-treated using a series of 8 concentrations for 1 hour at 37° C. […]
50 μL of cytokine detection antibody is added and incubated for 60 seconds at room temperature on a shaker protected from light at setting 6 and then for 30 minutes at setting 3.3 washes are performed with the Bio-Plex Wash Buffer. […] Standards and samples are read on a Luminex machine. These intensity readings are then converted to picogram/milliliter units based on a 12-point standard curve created in duplicate using a four-parameter logistic regression method (Bio-Plex Manager 2.0, Bio-Rad), and the IC50 calculated. […]

Data set [1] in a line: Oral exposure in male Fischer 344 rats. It is filed as in vivo. To be noted: rat, 1 mg/kg, fasted, gavage, suspension 1 mg/mL at 1 mL/kg, plasma. The method, then: Compounds are screened for oral exposure in male Fischer 344 rats. Animals are fasted overnight and administered test compounds prepared as suspensions in sodium carboxymethylcellulose (1% w/v) containing Tween 80 (0.25% v/v) and antifoam (0.1% w/v). Dose suspensions are prepared at 1 mg/mL and administered at 1 mL/kg by gavage. Blood samples are taken between 0.5 h and 7 h after dose administration and plasma are prepared by centrifugation. Plasma samples are analyzed using online solid phase extraction and LC/MS/MS.

The term IC50 denotes the midpoint of a concentration-inhibition curve. The term Cmax denotes the maximum level reached in the sampled fluid or tissue.

As for `CS(=O)(=O)O.Cc1ccc(-n2nc(C(C)(C)C)cc2NC(=O)Nc2ccc(N3CCN(C(=O)c4c(F)cccc4F)CC3)nc2C)cc1` [Example 5, 1-(5-tert-Butyl-2-p-tolyl-2H-pyrazol-3-yl)-3-{6-[4-(2,6-difluoro-benzoyl)-piperazin-1-yl]-2-methyl-pyridin-3-yl}-urea methanesulfonate], the “TMED50, inhibition of p-MAPKAPK synthesis” value in the data set with Phospho-MAPKAPK2 is 2.28 mg/kg. The IC50 in the data set on TNFα is 18 nM. The compound also returned a Cmax in data set [1] of 9390 ng/mL. Besides, in data set [1] (read-out: AUC(0-7h)), the AUC(0-t) worked out at 36800 ng·h/mL.

The values above are taken from patent publication US7652015B2, “Kinase inhibitors” (Eli Lilly and Company, priority 2006, dated 2010).
